Experimental data reported in publication PMC7265341, “Quantifying CDK inhibitor selectivity in live cells” (Nature Communications, 2020).
Like-named read-outs stand apart in the source and are kept apart here.

Assays:
CDK1/Cyclin E1 = CDK1/Cyclin E1 (Homo sapiens, UniProt P06493); experiment: NanoBRET live-cell target engagement, CDK1-NanoLuc/Cyclin E1 in HEK-293; assay type: binding; settings: CDK1/E1
CDK2/Cyclin E1 = CDK2/Cyclin E1 (Homo sapiens, UniProt P24941); experiment: NanoBRET live-cell target engagement, CDK2-NanoLuc/Cyclin E1 in HEK-293; assay type: binding; settings: CDK2/E1
CDK3/Cyclin E1 = CDK3/Cyclin E1 (Homo sapiens, UniProt Q00526); experiment: NanoBRET live-cell target engagement, CDK3-NanoLuc/Cyclin E1 in HEK-293; assay type: binding; settings: CDK3/E1
CDK4/Cyclin D1 = CDK4/Cyclin D1 (Homo sapiens, UniProt P11802); experiment: NanoBRET live-cell target engagement, NanoLuc-CDK4/Cyclin D1 in HEK-293; assay type: binding; settings: CDK4/D1; for IC50: read-out: IC50
CDK5/CDK5R1 = CDK5/CDK5R1 (Homo sapiens, UniProt Q00535); experiment: NanoBRET live-cell target engagement, CDK5-NanoLuc/CDK5R1 in HEK-293; assay type: binding; settings: CDK5/CDK5R1
CDK6/Cyclin D1 = CDK6/Cyclin D1 (Homo sapiens, UniProt Q00534); experiment: NanoBRET live-cell target engagement, NanoLuc-CDK6/Cyclin D1 in HEK-293; assay type: binding; settings: CDK6/D1; for IC50: read-out: IC50
CDK7 = CDK7 (Homo sapiens, UniProt P50613); experiment: NanoBRET live-cell target engagement, NanoLuc-CDK7 in HEK-293; assay type: binding; settings: CDK7
CDK8/Cyclin C = CDK8/Cyclin C (Homo sapiens, UniProt P49336); experiment: NanoBRET live-cell target engagement, NanoLuc-CDK8/Cyclin C in HEK-293; assay type: binding; settings: CDK8/C
CDK9/Cyclin K = CDK9/Cyclin K (Homo sapiens, UniProt P50750); experiment: NanoBRET live-cell target engagement, NanoLuc-CDK9/Cyclin K in HEK-293; assay type: binding; settings: CDK9/K
CDK11B/Cyclin L2 = CDK11B/Cyclin L2 (Homo sapiens, UniProt P21127); experiment: NanoBRET live-cell target engagement, CDK11B-NanoLuc/Cyclin L2 in HEK-293; assay type: binding; settings: CDK11b/L2
CDK12/Cyclin K = CDK12/Cyclin K (Homo sapiens, UniProt Q9NYV4); experiment: NanoBRET live-cell target engagement, CDK12-NanoLuc/Cyclin K in HEK-293; assay type: binding; settings: CDK12/K
CDK13/Cyclin K = CDK13/Cyclin K (Homo sapiens, UniProt Q14004); experiment: NanoBRET live-cell target engagement, CDK13-NanoLuc/Cyclin K in HEK-293; assay type: binding; settings: CDK13/K
CDK14/Cyclin Y = CDK14/Cyclin Y (Homo sapiens, UniProt O94921); experiment: NanoBRET live-cell target engagement, CDK14-NanoLuc/Cyclin Y in HEK-293; assay type: binding; settings: CDK14/Y
CDK15/Cyclin Y = CDK15/Cyclin Y (Homo sapiens, UniProt Q96Q40); experiment: NanoBRET live-cell target engagement, NanoLuc-CDK15/Cyclin Y in HEK-293; assay type: binding; settings: CDK15/Y
CDK16/Cyclin Y = CDK16/Cyclin Y (Homo sapiens, UniProt Q00536); experiment: NanoBRET live-cell target engagement, CDK16-NanoLuc/Cyclin Y in HEK-293; assay type: binding; settings: CDK16/Y
CDK17/Cyclin Y = CDK17/Cyclin Y (Homo sapiens, UniProt Q00537); experiment: NanoBRET live-cell target engagement, CDK17-NanoLuc/Cyclin Y in HEK-293; assay type: binding; settings: CDK17/Y
CDK18/Cyclin Y = CDK18/Cyclin Y (Homo sapiens, UniProt Q07002); experiment: NanoBRET live-cell target engagement, CDK18-NanoLuc/Cyclin Y in HEK-293; assay type: binding; settings: CDK18/Y
CDK20/Cyclin H = CDK20/Cyclin H (Homo sapiens, UniProt Q8IZL9); experiment: NanoBRET live-cell target engagement, NanoLuc-CDK20/Cyclin H in HEK-293; assay type: binding; settings: CDK20/H
CDK19/Cyclin C = CDK19/Cyclin C (Homo sapiens, UniProt Q9BWU1); experiment: NanoBRET live-cell target engagement, NanoLuc-CDK19/Cyclin C in HEK-293; settings: CDK19/C
CDK10/Cyclin L2 = CDK10/Cyclin L2 (Homo sapiens, UniProt Q15131); experiment: NanoBRET live-cell target engagement, CDK10-NanoLuc/Cyclin L2 in HEK-293; settings: CDK10/L2
Sequence of CDK10/Cyclin L2 (Q15131 whole entry): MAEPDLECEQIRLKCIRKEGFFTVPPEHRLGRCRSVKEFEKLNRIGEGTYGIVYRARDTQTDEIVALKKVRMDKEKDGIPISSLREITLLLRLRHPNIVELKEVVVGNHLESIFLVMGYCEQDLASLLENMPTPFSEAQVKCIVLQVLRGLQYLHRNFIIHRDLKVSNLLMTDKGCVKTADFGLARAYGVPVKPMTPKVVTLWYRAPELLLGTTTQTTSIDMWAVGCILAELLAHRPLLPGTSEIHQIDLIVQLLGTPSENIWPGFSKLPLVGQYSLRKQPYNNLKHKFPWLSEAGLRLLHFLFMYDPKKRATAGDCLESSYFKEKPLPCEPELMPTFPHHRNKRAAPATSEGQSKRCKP

Sequence of CDK6/Cyclin D1 (Q00534 whole entry): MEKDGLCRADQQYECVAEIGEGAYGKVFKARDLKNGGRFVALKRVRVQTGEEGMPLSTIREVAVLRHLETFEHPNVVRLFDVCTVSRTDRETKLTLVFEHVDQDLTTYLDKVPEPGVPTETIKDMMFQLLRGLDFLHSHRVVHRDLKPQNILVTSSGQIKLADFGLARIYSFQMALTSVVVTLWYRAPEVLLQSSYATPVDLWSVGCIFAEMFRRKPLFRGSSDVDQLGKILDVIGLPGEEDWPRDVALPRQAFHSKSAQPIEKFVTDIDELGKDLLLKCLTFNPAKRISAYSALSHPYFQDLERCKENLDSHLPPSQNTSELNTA
Sequence of CDK6/Cyclin D1 (P24385 whole entry partner): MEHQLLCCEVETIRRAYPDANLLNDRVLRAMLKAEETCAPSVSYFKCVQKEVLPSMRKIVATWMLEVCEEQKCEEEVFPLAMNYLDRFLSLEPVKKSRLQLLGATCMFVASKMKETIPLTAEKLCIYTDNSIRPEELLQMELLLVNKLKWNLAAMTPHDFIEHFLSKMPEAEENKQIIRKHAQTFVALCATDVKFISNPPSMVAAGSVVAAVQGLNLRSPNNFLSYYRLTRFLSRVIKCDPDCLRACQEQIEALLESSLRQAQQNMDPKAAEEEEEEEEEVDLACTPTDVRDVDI
Sequence of CDK17/Cyclin Y (Q00537 whole entry): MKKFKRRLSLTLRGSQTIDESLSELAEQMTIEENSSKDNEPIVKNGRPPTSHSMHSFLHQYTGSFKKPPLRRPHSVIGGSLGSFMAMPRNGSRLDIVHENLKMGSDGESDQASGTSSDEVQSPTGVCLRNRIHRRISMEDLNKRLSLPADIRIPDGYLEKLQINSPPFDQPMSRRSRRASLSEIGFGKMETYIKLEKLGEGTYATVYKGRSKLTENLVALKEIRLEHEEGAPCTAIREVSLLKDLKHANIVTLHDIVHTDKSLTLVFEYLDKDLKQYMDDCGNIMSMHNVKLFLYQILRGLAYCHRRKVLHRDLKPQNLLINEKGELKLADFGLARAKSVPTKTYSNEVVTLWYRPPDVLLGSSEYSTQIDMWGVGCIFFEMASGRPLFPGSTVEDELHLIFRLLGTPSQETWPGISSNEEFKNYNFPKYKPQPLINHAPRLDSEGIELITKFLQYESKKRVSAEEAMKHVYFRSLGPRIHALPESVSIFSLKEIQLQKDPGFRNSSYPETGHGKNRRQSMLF
Sequence of CDK17/Cyclin Y (Q8ND76 whole entry partner): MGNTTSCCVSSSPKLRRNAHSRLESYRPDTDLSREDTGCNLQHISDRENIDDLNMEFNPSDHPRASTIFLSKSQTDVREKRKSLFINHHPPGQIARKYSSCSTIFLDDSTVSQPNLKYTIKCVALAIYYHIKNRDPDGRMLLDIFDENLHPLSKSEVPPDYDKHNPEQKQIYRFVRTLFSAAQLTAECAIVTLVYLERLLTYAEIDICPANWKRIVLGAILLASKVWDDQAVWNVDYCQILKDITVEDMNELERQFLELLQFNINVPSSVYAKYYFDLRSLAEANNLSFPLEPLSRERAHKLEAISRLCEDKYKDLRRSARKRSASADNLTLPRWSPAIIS
Sequence of CDK15/Cyclin Y (Q96Q40 whole entry): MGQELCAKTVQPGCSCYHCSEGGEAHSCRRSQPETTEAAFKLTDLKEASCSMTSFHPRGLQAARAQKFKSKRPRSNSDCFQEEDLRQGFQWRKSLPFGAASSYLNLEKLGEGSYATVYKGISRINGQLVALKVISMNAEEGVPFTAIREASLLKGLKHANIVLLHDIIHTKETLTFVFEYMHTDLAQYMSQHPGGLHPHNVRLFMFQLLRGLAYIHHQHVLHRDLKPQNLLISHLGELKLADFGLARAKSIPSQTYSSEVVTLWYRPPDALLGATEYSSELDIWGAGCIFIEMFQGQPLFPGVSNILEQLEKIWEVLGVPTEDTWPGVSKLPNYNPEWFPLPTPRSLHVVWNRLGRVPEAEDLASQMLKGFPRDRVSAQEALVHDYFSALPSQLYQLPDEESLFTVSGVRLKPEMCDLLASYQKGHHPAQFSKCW
Sequence of CDK15/Cyclin Y (Q8ND76 whole entry partner): as the sequence (Q8ND76 whole entry partner) above
Sequence of CDK14/Cyclin Y (O94921 whole entry): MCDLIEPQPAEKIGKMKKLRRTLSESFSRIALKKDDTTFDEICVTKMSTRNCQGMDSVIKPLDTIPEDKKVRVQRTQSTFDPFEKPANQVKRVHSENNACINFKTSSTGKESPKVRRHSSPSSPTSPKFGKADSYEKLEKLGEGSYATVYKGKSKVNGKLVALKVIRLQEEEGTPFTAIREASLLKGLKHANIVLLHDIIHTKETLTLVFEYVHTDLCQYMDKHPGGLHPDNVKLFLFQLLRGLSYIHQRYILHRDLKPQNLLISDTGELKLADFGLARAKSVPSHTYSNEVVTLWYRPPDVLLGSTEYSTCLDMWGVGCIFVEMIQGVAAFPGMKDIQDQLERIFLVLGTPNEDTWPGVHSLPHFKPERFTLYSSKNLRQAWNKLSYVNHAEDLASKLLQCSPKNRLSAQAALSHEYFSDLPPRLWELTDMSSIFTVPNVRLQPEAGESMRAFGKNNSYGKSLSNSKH
Sequence of CDK14/Cyclin Y (Q8ND76 whole entry partner): as the sequence (Q8ND76 whole entry partner) above
Sequence of CDK19/Cyclin C (Q9BWU1 whole entry): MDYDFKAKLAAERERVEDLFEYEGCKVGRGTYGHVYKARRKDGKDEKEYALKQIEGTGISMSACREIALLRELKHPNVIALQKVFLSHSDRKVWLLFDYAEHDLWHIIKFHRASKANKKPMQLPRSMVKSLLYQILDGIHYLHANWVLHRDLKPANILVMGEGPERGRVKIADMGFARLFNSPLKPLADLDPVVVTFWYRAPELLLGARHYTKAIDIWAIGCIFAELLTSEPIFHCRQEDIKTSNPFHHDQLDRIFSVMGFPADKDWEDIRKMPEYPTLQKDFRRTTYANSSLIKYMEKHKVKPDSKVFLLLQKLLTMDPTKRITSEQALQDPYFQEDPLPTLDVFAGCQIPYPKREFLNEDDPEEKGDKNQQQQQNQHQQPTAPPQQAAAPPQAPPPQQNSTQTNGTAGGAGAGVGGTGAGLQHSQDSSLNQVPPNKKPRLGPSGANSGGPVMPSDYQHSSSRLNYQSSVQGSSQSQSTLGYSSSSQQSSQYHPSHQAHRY
Sequence of CDK19/Cyclin C (P24863 whole entry partner): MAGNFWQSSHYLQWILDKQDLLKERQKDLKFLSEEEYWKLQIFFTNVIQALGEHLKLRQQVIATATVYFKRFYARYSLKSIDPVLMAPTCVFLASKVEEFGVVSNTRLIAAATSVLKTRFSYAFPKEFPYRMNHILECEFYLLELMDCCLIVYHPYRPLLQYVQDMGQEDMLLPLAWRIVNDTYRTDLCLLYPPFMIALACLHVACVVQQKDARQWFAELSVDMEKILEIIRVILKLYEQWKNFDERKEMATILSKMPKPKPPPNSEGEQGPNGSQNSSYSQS
Sequence of CDK9/Cyclin K (P50750 whole entry): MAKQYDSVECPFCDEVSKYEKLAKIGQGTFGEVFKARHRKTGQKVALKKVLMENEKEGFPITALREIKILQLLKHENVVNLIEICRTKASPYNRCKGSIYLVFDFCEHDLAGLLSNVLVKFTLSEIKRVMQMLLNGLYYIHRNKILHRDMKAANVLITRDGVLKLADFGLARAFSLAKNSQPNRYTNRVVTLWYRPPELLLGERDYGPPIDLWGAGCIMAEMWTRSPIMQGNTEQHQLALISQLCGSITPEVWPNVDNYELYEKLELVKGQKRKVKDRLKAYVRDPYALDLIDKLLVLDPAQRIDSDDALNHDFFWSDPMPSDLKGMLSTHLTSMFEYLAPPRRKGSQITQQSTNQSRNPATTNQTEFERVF
Sequence of CDK9/Cyclin K (O75909 whole entry partner): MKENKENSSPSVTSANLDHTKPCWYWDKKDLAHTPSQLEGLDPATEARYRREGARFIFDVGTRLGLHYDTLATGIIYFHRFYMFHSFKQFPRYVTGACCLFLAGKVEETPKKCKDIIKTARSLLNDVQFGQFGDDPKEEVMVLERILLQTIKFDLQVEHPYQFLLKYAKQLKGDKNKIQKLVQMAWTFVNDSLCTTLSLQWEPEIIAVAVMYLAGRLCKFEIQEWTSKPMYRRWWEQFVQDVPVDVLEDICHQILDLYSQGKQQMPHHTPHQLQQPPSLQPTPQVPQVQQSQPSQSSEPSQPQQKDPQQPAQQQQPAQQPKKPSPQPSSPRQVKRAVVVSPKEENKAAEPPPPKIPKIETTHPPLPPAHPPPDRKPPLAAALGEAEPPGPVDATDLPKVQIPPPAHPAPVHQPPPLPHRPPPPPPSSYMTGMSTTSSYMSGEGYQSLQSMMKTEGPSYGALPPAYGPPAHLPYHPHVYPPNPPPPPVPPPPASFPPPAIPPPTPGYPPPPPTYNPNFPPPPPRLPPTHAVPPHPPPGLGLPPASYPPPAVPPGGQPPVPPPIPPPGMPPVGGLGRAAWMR
Sequence of CDK4/Cyclin D1 (P11802 whole entry): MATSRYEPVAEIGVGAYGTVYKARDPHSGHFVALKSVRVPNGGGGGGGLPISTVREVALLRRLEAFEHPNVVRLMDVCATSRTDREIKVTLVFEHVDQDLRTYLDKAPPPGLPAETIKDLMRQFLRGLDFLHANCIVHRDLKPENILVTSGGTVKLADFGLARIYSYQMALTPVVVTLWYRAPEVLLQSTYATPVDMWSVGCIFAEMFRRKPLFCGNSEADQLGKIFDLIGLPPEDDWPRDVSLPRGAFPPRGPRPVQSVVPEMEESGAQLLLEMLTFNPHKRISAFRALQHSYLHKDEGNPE
Sequence of CDK4/Cyclin D1 (P24385 whole entry partner): as the sequence (P24385 whole entry partner) above

CN1CCC(c2c(O)cc(O)c3c(=O)cc(-c4ccccc4Cl)oc23)C1CO (stereo not drawn) [P276-00]
Inhibition at 10µM (%) (CDK1/Cyclin E1; average): 41.0% | Inhibition at 10µM (%) (CDK1/Cyclin E1; experiment 1): 45.9% | Inhibition at 10µM (%) (CDK1/Cyclin E1; experiment 2): 36.2% | Inhibition at 10µM (%) (CDK2/Cyclin E1; average): 22.7% | Inhibition at 10µM (%) (CDK2/Cyclin E1; experiment 1): 16.7% | Inhibition at 10µM (%) (CDK2/Cyclin E1; experiment 2): 28.7% | Inhibition at 10µM (%) (CDK3/Cyclin E1; average): 51.8% | Inhibition at 10µM (%) (CDK3/Cyclin E1; experiment 1): 52.6% | Inhibition at 10µM (%) (CDK3/Cyclin E1; experiment 2): 51.0% | Inhibition at 10µM (%) (CDK4/Cyclin D1; average): 80.8% | IC50 (CDK4/Cyclin D1; average (± SEM where n=3)): 0.4 ± 0.1 µM | Inhibition at 10µM (%) (CDK4/Cyclin D1; experiment 1): 79.0% | IC50 (CDK4/Cyclin D1; experiment 1): 0.69 µM | Inhibition at 10µM (%) (CDK4/Cyclin D1; experiment 2): 82.6% | IC50 (CDK4/Cyclin D1; experiment 2): 0.2 µM | IC50 (CDK4/Cyclin D1; experiment 3): 0.301 µM | Inhibition at 10µM (%) (CDK5/CDK5R1; average): 26.1% | Inhibition at 10µM (%) (CDK5/CDK5R1; experiment 1): 31.1% | Inhibition at 10µM (%) (CDK5/CDK5R1; experiment 2): 21.1% | Inhibition at 10µM (%) (CDK6/Cyclin D1; average): 83.0% | IC50 (CDK6/Cyclin D1; average (± SEM where n=3)): 0.5 ± 0.1 µM | Inhibition at 10µM (%) (CDK6/Cyclin D1; experiment 1): 78.3% | IC50 (CDK6/Cyclin D1; experiment 1): 0.55 µM | Inhibition at 10µM (%) (CDK6/Cyclin D1; experiment 2): 87.7% | IC50 (CDK6/Cyclin D1; experiment 2): 0.22 µM | IC50 (CDK6/Cyclin D1; experiment 3): 0.659 µM | Inhibition at 10µM (%) (CDK7; average): 32.2% | Inhibition at 10µM (%) (CDK7; experiment 1): 38.1% | Inhibition at 10µM (%) (CDK7; experiment 2): 26.2% | Inhibition at 10µM (%) (CDK8/Cyclin C; average): 79.0% | Inhibition at 10µM (%) (CDK8/Cyclin C; experiment 1): 82.7% | Inhibition at 10µM (%) (CDK8/Cyclin C; experiment 2): 75.3% | Inhibition at 10µM (%) (CDK9/Cyclin K; average): 96.7% | Inhibition at 10µM (%) (CDK9/Cyclin K; experiment 1): 94.9% | Inhibition at 10µM (%) (CDK9/Cyclin K; experiment 2): 98.4% | Inhibition at 10µM (%) (CDK11B/Cyclin L2; average): 58.5% | Inhibition at 10µM (%) (CDK11B/Cyclin L2; experiment 1): 56.7% | Inhibition at 10µM (%) (CDK11B/Cyclin L2; experiment 2): 60.4% | Inhibition at 10µM (%) (CDK12/Cyclin K; average): 3.3% | Inhibition at 10µM (%) (CDK12/Cyclin K; experiment 1): 2.5% | Inhibition at 10µM (%) (CDK12/Cyclin K; experiment 2): 4.1% | Inhibition at 10µM (%) (CDK13/Cyclin K; average): 11.2% | Inhibition at 10µM (%) (CDK13/Cyclin K; experiment 1): 12.5% | Inhibition at 10µM (%) (CDK13/Cyclin K; experiment 2): 9.8% | Inhibition at 10µM (%) (CDK14/Cyclin Y; average): 50.9% | Inhibition at 10µM (%) (CDK14/Cyclin Y; experiment 1): 51.1% | Inhibition at 10µM (%) (CDK14/Cyclin Y; experiment 2): 50.7% | Inhibition at 10µM (%) (CDK15/Cyclin Y; average): 28.5% | Inhibition at 10µM (%) (CDK15/Cyclin Y; experiment 1): 33.3% | Inhibition at 10µM (%) (CDK15/Cyclin Y; experiment 2): 23.7% | Inhibition at 10µM (%) (CDK16/Cyclin Y; experiment 1): 61.8% | Inhibition at 10µM (%) (CDK16/Cyclin Y; experiment 2): 61.2% | Inhibition at 10µM (%) (CDK17/Cyclin Y; average): 71.1% | Inhibition at 10µM (%) (CDK17/Cyclin Y; experiment 1): 75.5% | Inhibition at 10µM (%) (CDK17/Cyclin Y; experiment 2): 66.7% | Inhibition at 10µM (%) (CDK18/Cyclin Y; average): 57.3% | Inhibition at 10µM (%) (CDK18/Cyclin Y; experiment 1): 55.4% | Inhibition at 10µM (%) (CDK18/Cyclin Y; experiment 2): 59.3% | Inhibition at 10µM (%) (CDK20/Cyclin H; experiment 1): -0.6% | Inhibition at 10µM (%) (CDK20/Cyclin H; experiment 2): -6.9% | Inhibition at 10µM (%) (CDK19/Cyclin C; average): 72.1% | Inhibition at 10µM (%) (CDK19/Cyclin C; experiment 1): 76.3% | Inhibition at 10µM (%) (CDK19/Cyclin C; experiment 2): 67.9% | Inhibition at 10µM (%) (CDK10/Cyclin L2; average): 11.6% | Inhibition at 10µM (%) (CDK10/Cyclin L2; experiment 1): 10.1% | Inhibition at 10µM (%) (CDK10/Cyclin L2; experiment 2): 13.1%
